Where a name gives a salt, the structure may show the parent alone.
Assays:
DPP-VIII = molecular target: T1, DPP-VIII (Homo sapiens, UniProt Q6V1X1); experiment: Assay for DPP-VIII inhibitory activity (luminescence); assay type: biochemical; settings: purified DPP-VIII enzyme
T1 construct: purchased Bioscience 80080

DPP-IX = molecular target: T2, DPP-IX (Homo sapiens, UniProt Q86TI2); experiment: Assay for DPP-IX inhibitory activity (luminescence); assay type: biochemical; settings: purified DPP-IX enzyme
T2 construct: purchased Bioscience 80090
T2 sequence (Q86TI2 whole entry): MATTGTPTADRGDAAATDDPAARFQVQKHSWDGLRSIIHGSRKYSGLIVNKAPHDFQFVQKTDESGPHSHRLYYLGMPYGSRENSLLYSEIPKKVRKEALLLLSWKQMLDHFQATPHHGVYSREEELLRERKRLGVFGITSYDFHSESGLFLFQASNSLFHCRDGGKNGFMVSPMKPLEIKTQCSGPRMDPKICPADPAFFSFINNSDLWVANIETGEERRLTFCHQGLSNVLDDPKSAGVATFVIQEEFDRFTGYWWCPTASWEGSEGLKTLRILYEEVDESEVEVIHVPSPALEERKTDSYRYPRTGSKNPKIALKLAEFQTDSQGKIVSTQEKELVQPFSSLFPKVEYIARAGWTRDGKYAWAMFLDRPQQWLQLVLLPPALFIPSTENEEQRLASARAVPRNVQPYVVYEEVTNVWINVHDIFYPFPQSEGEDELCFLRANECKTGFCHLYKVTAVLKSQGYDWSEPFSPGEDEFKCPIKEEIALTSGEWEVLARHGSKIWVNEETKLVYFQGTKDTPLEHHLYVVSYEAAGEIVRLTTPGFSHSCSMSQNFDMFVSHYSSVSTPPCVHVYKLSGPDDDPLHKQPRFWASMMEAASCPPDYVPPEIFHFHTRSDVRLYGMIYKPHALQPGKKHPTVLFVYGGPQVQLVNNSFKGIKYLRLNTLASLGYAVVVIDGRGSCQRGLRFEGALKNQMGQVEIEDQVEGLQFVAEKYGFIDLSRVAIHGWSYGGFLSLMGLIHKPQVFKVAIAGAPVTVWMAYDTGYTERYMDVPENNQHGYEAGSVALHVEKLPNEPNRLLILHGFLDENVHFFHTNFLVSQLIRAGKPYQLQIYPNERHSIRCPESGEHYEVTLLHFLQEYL

DPP-IV = molecular target: T3, DPP-IV (Homo sapiens, UniProt P27487); experiment: Assay for DPP-IV inhibitory activity (DPP-IV-Glo luminescence); assay type: biochemical; settings: purified DPP-IV enzyme
T3 construct: purchased Calbiochem 317630
T3 sequence (P27487 whole entry): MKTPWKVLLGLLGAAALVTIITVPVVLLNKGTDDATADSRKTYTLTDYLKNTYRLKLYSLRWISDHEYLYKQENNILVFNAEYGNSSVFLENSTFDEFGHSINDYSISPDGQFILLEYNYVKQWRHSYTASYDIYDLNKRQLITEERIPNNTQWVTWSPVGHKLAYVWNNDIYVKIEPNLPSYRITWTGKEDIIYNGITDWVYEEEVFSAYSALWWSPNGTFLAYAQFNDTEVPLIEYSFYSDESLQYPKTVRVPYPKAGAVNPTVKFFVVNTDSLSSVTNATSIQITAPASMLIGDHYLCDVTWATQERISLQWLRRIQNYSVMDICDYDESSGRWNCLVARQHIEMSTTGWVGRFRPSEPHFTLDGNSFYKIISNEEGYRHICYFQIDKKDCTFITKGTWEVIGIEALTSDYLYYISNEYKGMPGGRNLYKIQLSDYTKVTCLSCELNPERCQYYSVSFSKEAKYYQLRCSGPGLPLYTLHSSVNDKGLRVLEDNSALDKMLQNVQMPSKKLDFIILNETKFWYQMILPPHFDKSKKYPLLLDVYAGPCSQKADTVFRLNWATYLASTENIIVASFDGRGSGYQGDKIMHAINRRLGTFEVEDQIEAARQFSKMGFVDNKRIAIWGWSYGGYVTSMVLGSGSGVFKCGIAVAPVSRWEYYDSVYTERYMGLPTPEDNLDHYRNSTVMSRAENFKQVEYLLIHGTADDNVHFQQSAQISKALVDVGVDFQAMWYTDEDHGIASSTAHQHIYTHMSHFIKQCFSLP
From the text: 2. […] 3. […] 4. […] 5. […] 7. […] 9. […] 10. […] 11. […] 12.

[1] = Observation of water solubility when preparing dosing liquid; assay type: physicochemical; settings: double distilled water; visible particles at 0.5 mg/mL, dissolved at low concentration
Description: Preparation Method: Compounds were weighed accurately, and then dissolved in double distilled water. The suspensions of 0.5, 0.15 and 0.05 mg/mL were prepared, respectively.

normal ICR mice = experiment: Oral glucose tolerance test in normal ICR mice (hypoglycemic effect); assay type: in vivo; settings: 2.5 g/kg glucose, 30 min after glucose
Description: Species, strains: ICR mice […] The volume is 20 mL/kg. […] The volume is 20 mL/kg. 1. The effects of compounds on blood glucose levels in normal ICR mice Normal male ICR mice were randomly grouped according to weights, 6 mice in each group. The groups included a black control group as well as different doses of the treatment groups as follows: Test 1: Blank control: double-distilled water by gavage. Group 1: the compound of Example 1, 1 mg/kg by gavage; […] Test 2: Blank control: double-distilled water by gavage. Group 1: the compound of Example 1, 1 mg/kg by gavage; […] 2. Serum Glucose Determination: […] The blank tube was used to set the instrument to zero, the colorimetric assay was performed at OD 505 nm. Serum glucose concentration (BG, mmol/l)=ODsample tube/ODstandard tube×5.55 Data Processing and Statistical Analysis: 1. Mean±SD and Student-t test were used in statistical analysis. 2.

KKAy mice = experiment: Oral glucose tolerance test in type II diabetes KKAy mice; assay type: in vivo; settings: 30 min after glucose
Description: Species, Strains: KKAy mice Preparation Method: […] The volume is 10 mL/kg. The Effects of the Compounds on Blood Glucose in KKay Mice Normal KKAy mice had been fasted for 6 hours, and then were randomly grouped according to the weights and fasting blood glucose, 5 mice in each group. The groups included a blank control group as well as different doses of the treatment groups as follows: Test 1: male 0704 Blank control: double-distilled water by gavage […] Test 2: female 0816 Blank control: double-distilled water by gavage […] Test 3: male 0712 Black control: double-distilled water by gavage […] Test 4: female 0907 Black control: double-distilled water by gavage […] 3. Mean±SD and Student-t test, or Anova was used in statistical analysis. 4.

[2] = Test 1, male ICR mice, high dose 10 mg/kg by gavage
[3] = Test 1, male ICR mice, low dose 1 mg/kg by gavage
[4] = Test 1, male ICR mice, middle dose 3 mg/kg by gavage
[5] = Test 2, male ICR mice, high dose 10 mg/kg by gavage
[6] = Test 2, male ICR mice, low dose 1 mg/kg by gavage
[7] = Test 2, male ICR mice, middle dose 3 mg/kg by gavage
[8] = female KKAy mice, 10 mg/kg by gavage, 2.5 g/kg glucose
[9] = male KKAy mice, 10 mg/kg by gavage, 1.5 g/kg glucose
[10] = male KKAy mice, 30 mg/kg by gavage, 1.5 g/kg glucose

T1 sequence (Q6V1X1 whole entry): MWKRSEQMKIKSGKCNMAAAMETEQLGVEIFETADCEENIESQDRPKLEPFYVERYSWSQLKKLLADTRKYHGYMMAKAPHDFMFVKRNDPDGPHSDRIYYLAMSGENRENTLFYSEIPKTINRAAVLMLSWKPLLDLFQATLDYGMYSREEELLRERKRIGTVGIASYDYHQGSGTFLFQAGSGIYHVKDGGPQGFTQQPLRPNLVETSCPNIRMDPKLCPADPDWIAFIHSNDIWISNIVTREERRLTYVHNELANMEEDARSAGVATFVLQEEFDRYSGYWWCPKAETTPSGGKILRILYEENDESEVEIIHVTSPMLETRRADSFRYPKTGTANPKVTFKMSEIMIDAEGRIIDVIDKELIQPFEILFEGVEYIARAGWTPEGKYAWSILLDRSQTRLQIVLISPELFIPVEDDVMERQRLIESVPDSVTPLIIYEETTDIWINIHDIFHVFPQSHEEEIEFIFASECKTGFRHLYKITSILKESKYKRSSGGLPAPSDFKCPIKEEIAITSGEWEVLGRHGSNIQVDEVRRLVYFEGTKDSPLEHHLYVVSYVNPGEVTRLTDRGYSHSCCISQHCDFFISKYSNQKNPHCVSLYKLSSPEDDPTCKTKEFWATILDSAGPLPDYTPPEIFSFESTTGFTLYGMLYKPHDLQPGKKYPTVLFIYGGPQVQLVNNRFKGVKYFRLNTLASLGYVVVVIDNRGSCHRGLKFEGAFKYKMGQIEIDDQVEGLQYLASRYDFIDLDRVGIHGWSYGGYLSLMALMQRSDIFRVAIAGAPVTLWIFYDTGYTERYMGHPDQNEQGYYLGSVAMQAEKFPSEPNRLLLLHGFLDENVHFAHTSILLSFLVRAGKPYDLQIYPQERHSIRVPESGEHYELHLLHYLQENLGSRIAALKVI

| IC50 (DPP-VIII) | IC50 (DPP-IX) | IC50 (DPP-IV) | SMILES | water solubility (observation) [1] | percentage of blood glucose decreased vs control group at 30 minutes (normal ICR mice; [2]) | percentage of blood glucose decreased vs control group at 30 minutes (normal ICR mice; [3]) | percentage of blood glucose decreased vs control group at 30 minutes (normal ICR mice; [4]) | percentage of blood glucose decreased vs control group at 30 minutes (normal ICR mice; [5]) | percentage of blood glucose decreased vs control group at 30 minutes (normal ICR mice; [6]) | percentage of blood glucose decreased vs control group at 30 minutes (normal ICR mice; [7]) | percentage of blood glucose decreased vs control group at 30 minutes (KKAy mice; female KKAy mice, 3 mg/kg by gavage, 2.5 g/kg glucose) | percentage of blood glucose decreased vs control group at 30 minutes (KKAy mice; [8]) | percentage of blood glucose decreased vs control group at 30 minutes (KKAy mice; [9]) | percentage of blood glucose decreased vs control group at 30 minutes (KKAy mice; [10]) |
| --- | --- | --- | --- | --- | --- | --- | --- | --- | --- | --- | --- | --- | --- | --- |
| 371 nM | 516 nM | 10 nM | CN(C)C(=O)N1C[C@@H]2C[C@](C)(NCC(=O)N3C[C@@H](F)C[C@H]3C#N)C[C@@H]2C1 [Example 13, 5-[2-((2S,4S)-2-Cyano-4-fluoro-pyrrolidin-1-yl)-2-oxo-ethylamino]-N,N,5-tirmethyl-hexahydro-cyclopenta[c]pyrrole-2-carboxamide tartrate] |  |  |  |  |  |  |  |  |  |  |  |
| 3320 nM | 380 nM | 39 nM | CN(C)C(=O)N1C[C@@H]2C[C@@](C)(NCC(=O)N3C[C@@H](F)C[C@H]3C#N)C[C@@H]2C1 [Example 18, 5-[2-((2S,4S)-2-Cyano-4-fluoro-pyrrolidin-1-yl)-2-oxo-ethylamino]-5-methyl-hexahydro-cyclopenta[c]pyrrole-2-carboxylic acid dimethylamide p-toluenesulfonate] |  |  |  |  |  |  |  |  |  |  |  |
|  |  |  | CN(C)C(=O)N1C[C@H]2C[C@@H](NCC(=O)N3CCC[C@H]3C#N)C[C@H]2C1 [Example 1, cis-5-[2-((S)-2-Cyano-pyrrolidin-1-yl)-2-oxo-ethylamino]-N,N-dimethyl-hexahydro-cyclopenta[c]pyrrole-2-carboxamide hydrochloride] | poorly water-soluble | 31.85% | 19.16% | 22.85% | 32.05% | 26.10% | 30.24% | 40.63% | 24.68% | 16.22% | 17.15% |
|  |  |  | COC(=O)N1C[C@H]2C[C@@H](NCC(=O)N3CCC[C@H]3C#N)C[C@H]2C1 [Example 2, hydrochloride] |  | 26.93% | 25.54% | 25.92% | 27.75% | 24.51% | 26.96% |  | 21.55% | 13.79% | 12.23% |

Source: patent US8415349B2, “Dicycloazaalkane derivatives, preparation processes and medical uses thereof” (Jiangsu Hansoh Pharmaceuticals Co., Ltd., priority 2008, dated 2013)
